Results as given in ChEMBL document CHEMBL1129315, “Studies on selectin blockers. 2. Novel selectin blocker as potential therapeutics for inflammatory disorders” (J Med Chem, 1996).

Columns and labels:
[1] = target: T1, P-selectin (Homo sapiens, UniProt P16109); test: Inhibitory concentration against blocking of Selectin P during migration of inflammatory cells to inflammatory site
T1 sequence (P16109 whole entry): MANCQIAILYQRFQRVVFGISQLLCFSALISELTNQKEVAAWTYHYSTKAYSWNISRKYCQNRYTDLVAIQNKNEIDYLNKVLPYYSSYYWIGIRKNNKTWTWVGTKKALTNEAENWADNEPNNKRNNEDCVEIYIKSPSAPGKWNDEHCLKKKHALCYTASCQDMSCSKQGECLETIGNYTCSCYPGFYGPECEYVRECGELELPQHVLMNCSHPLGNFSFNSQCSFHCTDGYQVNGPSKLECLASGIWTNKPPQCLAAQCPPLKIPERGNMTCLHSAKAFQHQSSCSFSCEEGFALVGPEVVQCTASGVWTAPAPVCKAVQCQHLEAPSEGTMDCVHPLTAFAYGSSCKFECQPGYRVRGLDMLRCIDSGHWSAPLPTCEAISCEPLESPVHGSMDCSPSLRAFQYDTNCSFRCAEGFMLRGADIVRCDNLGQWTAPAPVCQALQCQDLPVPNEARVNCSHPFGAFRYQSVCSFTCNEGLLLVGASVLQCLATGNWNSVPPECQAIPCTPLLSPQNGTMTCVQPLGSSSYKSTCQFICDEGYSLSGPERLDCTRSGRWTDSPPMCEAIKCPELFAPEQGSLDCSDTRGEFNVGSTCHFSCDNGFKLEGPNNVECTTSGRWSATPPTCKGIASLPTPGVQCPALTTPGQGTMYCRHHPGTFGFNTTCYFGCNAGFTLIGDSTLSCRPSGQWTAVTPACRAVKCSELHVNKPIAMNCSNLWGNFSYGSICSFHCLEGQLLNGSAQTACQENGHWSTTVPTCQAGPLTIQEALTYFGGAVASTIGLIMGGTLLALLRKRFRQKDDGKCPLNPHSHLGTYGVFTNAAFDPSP

[2] = target: T2, L-selectin (Homo sapiens, UniProt P14151); test: Inhibitory concentration against blocking of Selectin L during migration of inflammatory cells to inflammatory site
T2 sequence (P14151 whole entry): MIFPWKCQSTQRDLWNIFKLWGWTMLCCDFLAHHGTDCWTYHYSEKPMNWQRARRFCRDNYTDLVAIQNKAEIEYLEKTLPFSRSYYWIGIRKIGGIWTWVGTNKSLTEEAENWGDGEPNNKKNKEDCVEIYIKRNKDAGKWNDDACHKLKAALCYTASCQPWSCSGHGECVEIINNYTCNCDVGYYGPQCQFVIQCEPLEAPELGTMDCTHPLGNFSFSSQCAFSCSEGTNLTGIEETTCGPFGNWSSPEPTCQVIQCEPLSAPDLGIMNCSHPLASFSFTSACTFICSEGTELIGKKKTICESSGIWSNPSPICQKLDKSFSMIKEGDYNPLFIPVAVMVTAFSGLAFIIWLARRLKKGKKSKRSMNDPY

[3] = target: T3, E-selectin (Homo sapiens, UniProt P16581); test: Inhibitory concentration against blocking of E-selectin during migration of inflammatory cells to inflammatory site
T3 sequence (P16581 whole entry): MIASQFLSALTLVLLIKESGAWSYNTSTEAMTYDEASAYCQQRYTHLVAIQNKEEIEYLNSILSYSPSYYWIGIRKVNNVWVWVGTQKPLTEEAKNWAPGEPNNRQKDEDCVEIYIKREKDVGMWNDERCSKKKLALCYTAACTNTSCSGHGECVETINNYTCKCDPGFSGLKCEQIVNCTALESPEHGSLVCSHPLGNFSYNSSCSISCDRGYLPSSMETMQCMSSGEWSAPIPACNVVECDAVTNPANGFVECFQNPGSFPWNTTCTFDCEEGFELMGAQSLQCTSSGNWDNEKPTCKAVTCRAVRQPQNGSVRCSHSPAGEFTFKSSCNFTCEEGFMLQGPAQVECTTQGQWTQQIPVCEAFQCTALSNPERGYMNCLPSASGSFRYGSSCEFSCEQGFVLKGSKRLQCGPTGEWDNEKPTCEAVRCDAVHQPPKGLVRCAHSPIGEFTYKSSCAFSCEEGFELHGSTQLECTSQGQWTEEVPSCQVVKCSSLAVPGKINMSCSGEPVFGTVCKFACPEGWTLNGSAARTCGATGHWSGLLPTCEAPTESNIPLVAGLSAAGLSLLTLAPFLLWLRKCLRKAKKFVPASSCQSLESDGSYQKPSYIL

| IC50 [1] [µM] | IC50 [2] [µM] | IC50 [3] [µM] | SMILES |
| --- | --- | --- | --- |
| > 1000 | > 1000 |  | CC(=O)N[C@H]1[C@H]([C@H](O)[C@H](O)CO)O[C@@](O[C@H]2[C@@H](O)[C@@H](CO)O[C@@H](O[C@@H]([C@H](O[C@@H]3O[C@@H](C)[C@@H](O)[C@@H](O)[C@@H]3O)[C@H](C=O)NC(C)=O)[C@H](O)CO)[C@@H]2O)(C(=O)O)C[C@@H]1O [SIALYL LEWIS X] |
| 300 | > 1000 | > 1000 | CC1OC(OC2C(O)COC(CO)C2OC2OC(CO)C(O)C(OS(=O)(=O)O)C2O)C(O)C(O)C1O (stereo not given) |
